From publication PMC11904948, “Peptide‐Drug Conjugate for Therapeutic Reprogramming of Tumor‐Associated Macrophages in Breast Cancer” (Advanced Science, 2025)

System: mouse bone marrow‐derived macrophages (BMDM)
Test: Phagocytosis of live 4T1-GFP cancer cells by BMDM
Type: cell-based
Details: Balb/c BMDM, 10 µM 4 h, washed, 48 h, then 2 h with 4T1-GFP cells, n = 3
Experimental: We then analyzed if MACTIDE‐V affected the phagocytic activity of BMDM in vitro.
For the live 4T1‐GFP phagocytosis assay, 4T1‐GFP cells were cultured in RPMI1640 supplemented with 10% (v/v) FBS and 1% penicillin/streptomycin at 37 °C, 5% CO2. BMDM were seeded on Ibidi plates (Ibidi, cat# 80821) and at day 5 were treated with MACTIDE and conjugates as previously described (10 µM during 4h, followed by washing with media). Then, 48h later, the BMDM were incubated for 2 h with 2×10^5 4T1‐GFP cells (the area of the wells is 1 cm^2). Then, the supernatant was removed, and the wells were washed with media and then with PBS. Then, the cells were fixed with ice‐cold acetone for 10 min. Fixed cells were then washed with PBS, permeabilized with PBS‐0.2% Triton for 10 min and washed with PBS‐T (PBS+0.05% Tween‐20 (v/v)), and then incubated with blocking buffer (5% BSA (w/v), 5% FBS (v/v) in PBS‐T) for 1 h at room temperature. […] The mean GFP signal intensity was quantified from the images using ImageJ and normalized to the amount of DAPI^+ nuclei.
Figure S4. […] Scale bars= 50µm.The mean GFP signal intensity was quantified from the images using ImageJ and normalized to the amount of DAPI^+ nuclei (right panel). […]

Substance	phagocytosis of live 4T1 cancer cells labeled with GFP
Vert‐Ahx‐G(CTKSIPPIC)SPGAK‐OH (disulfide) [MACTIDE‐V]	cancer cell phagocytosis only in the MACTIDE‐V treated BMDM
Vert‐Ahx‐AKPCGS‐OH [CtrlPep‐V, reference compound]	negligible phagocytosis
